The values that follow come from ChEMBL document CHEMBL1201862, “PubChem BioAssay data set” (2004).

The AC50 is the concentration giving half of the maximal activity seen. What is called IC50 is the point on the concentration scale where inhibition reaches its midpoint. As usually defined, the EC50 is the concentration at which the effect is half-maximal. A word on the CC50: it is the concentration giving 50% cytotoxicity.

The nature of assay [1]: loss of viability in HepG2 cells – cell-based, CellTiter-Glo, cherry-picked, cytotoxicity control for Shn3 inhibitor project, dose response (AID 624134). The assay is classed as functional.
The nature of assay [2]: Counterscreen for AddAB inhibitors: absorbance-based bacterial cell-based high throughput dose response assay for inhibitors of bacterial viability. [Related pubchem assays (depositor defined):AID435030, AID449728, AID449731, AID488942, AID488955, AID488956]. Format: functional. (The purpose of a counterscreen is to sort out artefacts and off-target activity.)
The nature of assay [3]: non-specific 3'UTR reporter inhibition in Clone20-Shn3RL – cell-based, Renilla luciferase, cherry-picked, counter-screen for Shn3 inhibitor project, dose response (AID 624133). The assay is classed as functional.
Assay [4] can be described thus: reduction of Shn3 3'UTR-driven luciferase in osteoblasts – cell-based, Clone20 osteoblasts, firefly luciferase, cherry-picked, dose response (AID 624132).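 Note: firefly luciferase luminescence from reporter carrying the Shn3 3'UTR in osteoblasts.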 Format: functional.
For another assay, the system named is INS1. The experiment in a line: INS-1E survival protection against cytokine death – cell-based, luminescence, retest, dose response (AID 449756).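 Note: cell death triggered by IL-1 beta plus TNF-alpha plus IFN-gamma mixture; protective hits raise ATP signal compared with cytokine alone wells.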 Format: functional. To be noted: Rattus norvegicus.
In another assay the target is T1, Protein RecA (Mycobacterium tuberculosis, UniProt P9WHJ3).
T1 sequence (P9WHJ3 whole entry): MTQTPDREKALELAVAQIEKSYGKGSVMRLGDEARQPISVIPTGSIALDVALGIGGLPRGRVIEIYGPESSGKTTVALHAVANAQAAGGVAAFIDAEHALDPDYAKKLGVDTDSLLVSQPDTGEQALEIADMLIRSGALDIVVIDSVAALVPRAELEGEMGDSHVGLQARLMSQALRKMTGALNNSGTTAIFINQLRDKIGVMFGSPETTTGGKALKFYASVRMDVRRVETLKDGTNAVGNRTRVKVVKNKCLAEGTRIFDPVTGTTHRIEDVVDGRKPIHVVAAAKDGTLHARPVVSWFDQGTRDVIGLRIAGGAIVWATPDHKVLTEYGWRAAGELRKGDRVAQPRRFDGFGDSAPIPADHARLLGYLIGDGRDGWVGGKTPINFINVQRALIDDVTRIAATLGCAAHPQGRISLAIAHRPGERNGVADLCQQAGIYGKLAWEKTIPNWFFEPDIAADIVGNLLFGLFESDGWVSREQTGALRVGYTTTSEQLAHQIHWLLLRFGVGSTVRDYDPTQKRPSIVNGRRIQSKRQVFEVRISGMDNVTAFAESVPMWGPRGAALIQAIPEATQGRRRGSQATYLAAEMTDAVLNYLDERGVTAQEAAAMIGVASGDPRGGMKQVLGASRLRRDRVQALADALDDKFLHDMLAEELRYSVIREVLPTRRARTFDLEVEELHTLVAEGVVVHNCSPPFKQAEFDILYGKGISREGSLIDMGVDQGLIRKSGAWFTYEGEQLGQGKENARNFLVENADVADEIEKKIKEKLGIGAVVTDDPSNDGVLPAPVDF
In words: Fluorescence Cell-Free Homogeneous Dose Retest to Identify Inhibitors of RecA-Intein Splicing Activity. [Related pubchem assays (depositor defined):AID2097, AID2223, AID489010, AID492950]. The assay is classed as functional.

Assay [5] addresses T2, Replicative DNA helicase DnaB (Mycobacterium tuberculosis, UniProt P9WMR3).
T2 sequence (P9WMR3 whole entry): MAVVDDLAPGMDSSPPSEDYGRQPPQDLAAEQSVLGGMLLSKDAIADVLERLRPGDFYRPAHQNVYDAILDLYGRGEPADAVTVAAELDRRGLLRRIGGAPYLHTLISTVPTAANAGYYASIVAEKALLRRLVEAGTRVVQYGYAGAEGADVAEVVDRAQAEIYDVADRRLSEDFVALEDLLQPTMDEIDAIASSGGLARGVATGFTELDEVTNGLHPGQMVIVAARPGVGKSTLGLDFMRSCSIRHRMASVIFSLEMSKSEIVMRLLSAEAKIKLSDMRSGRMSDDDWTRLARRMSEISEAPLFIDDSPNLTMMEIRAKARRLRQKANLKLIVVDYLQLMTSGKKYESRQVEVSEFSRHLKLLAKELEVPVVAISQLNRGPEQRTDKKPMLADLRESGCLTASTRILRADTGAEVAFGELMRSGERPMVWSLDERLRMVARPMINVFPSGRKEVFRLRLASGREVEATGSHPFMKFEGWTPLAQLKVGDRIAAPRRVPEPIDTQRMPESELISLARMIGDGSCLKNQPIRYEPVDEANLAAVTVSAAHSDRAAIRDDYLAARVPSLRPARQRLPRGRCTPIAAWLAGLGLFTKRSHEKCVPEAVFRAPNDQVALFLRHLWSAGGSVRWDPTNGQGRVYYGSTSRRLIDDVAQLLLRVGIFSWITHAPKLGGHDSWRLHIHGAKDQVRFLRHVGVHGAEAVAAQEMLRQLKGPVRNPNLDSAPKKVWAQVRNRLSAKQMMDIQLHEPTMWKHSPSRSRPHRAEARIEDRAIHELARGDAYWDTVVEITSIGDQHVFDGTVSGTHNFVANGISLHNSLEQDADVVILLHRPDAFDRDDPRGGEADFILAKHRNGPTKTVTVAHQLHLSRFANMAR
The experiment in a line: DnaB intein splicing inhibitors, dose response, biochemical, cell-free fluorescence (AID 449749). The assay is classed as functional.

The target of the next assay is Genome polyprotein (dengue virus type 2, UniProt P29990). The experiment in a line: flavivirus cap methylation enzyme inhibition – biochemical, confirmation dose response, primary screen (AID 588689). Format: functional.
Assay [6] can be described thus: NIH3T3 cell viability loss – ATP luminescence, mouse fibroblasts, counter-screen, dose response (AID 2010).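 Note: cells exposed to compound for about 90 hours before reading.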 The assay is classed as functional, cell-based.
Assay [7] can be described thus: Trypanosoma cruzi growth suppression in host cells – NIH3T3 host cells, beta-gal luminescence, confirmation (AID 2044).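 Note: intracellular parasites grown in NIH/3T3 mouse fibroblasts as host cells; luminescent beta-galactosidase reporter signal from transgenic T. cruzi replicating inside host cells; inhibitors lower the luminescence signal.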 Format: functional, cell-based.
A short description of another assay: cells. The assay is classed as functional.
Assay [8] can be described thus: THP-1 cell cytotoxicity, dose response, cytotoxicity control for non-replicating M. tuberculosis project (AID 489025). Format: functional.

Activity calls are given as the source filed them.

Sequence of Genome polyprotein (P29990 2492-3391 limits assumed): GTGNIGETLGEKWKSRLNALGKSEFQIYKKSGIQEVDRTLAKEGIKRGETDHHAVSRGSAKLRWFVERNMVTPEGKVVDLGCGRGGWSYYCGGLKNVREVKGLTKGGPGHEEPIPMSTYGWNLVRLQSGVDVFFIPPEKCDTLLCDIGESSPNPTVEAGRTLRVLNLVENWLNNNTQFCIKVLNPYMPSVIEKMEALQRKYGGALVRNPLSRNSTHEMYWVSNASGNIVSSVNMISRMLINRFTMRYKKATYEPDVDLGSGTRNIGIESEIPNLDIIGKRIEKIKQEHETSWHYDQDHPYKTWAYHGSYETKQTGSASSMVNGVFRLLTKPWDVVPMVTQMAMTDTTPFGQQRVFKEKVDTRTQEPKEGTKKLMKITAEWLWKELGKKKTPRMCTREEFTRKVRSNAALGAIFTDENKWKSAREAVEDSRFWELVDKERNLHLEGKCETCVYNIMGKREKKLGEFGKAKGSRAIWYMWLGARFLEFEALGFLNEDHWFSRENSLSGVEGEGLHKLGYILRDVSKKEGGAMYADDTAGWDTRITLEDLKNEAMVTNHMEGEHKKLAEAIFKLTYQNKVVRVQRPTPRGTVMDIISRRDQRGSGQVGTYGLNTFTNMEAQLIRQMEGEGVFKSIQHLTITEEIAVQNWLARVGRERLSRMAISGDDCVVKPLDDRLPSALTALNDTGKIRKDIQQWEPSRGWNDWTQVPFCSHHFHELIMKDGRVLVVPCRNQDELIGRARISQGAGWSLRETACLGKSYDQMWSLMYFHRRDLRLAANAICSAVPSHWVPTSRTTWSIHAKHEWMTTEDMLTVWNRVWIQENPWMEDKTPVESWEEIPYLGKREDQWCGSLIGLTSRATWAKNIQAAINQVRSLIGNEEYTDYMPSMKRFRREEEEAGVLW

Consider `O=C(CC(O)(C(F)(F)F)C(F)(F)F)Nc1ccc(Cl)c(Cl)c1`, for which the AC50 in assay [1] is 3.7 µM (active); in [3], 5.67 µM (active); in assay [4], 4.97 µM (active); in the assay on INS1, 2.44 µM (active). In addition, in assay [2], the IC50 is 39 µM (inactive).

In the case of `O=C(O)CSc1cc(NS(=O)(=O)c2ccc(Br)cc2)c2ccccc2c1O`, the half-maximal effective concentration (EC50) on Protein RecA was 0.244 µM (active). Further, the AC50 in [5] was 0.883 µM (active). The IC50 on Genome polyprotein is 7.66 µM (active).

Regarding `Cc1ccc(NC(=O)C2=C(c3ccccc3)S(=O)(=O)CCS2(=O)=O)cc1`, the AC50 in [1] was 12.5 µM (active); in assay [3], 4.49 µM (active); in [4], 0.558 µM (active); in assay [5], 2.18 µM (active); in the assay on INS1, 6.54 µM (active). In addition, the figures for the EC50 (at Protein RecA; in [6]; in [7]) were 1.01 µM (active), 2.48 µM (active) and 1.97 µM (active), respectively. For the same molecule, the 50% inhibitory concentration (IC50) in the assay “cells” was 38.3 µM (active); at Genome polyprotein, > 100 µM (active). The 50% cytotoxic concentration (CC50) in [8] was 19.4 µM (active).

In the case of `O=C(CNc1cccc2ccccc12)N/N=C/c1ccc([N+](=O)[O-])o1`, the results for the IC50 (in assay [2]; in “cells”) were > 118 µM (inactive) and 3.24 µM (active), respectively. In addition, the EC50 is > 60 µM (not active) in assay [6] and < 0.1 µM (active) in [7]. Also, in assay [8], the 50% cytotoxic concentration (CC50) is 16.8 µM (active). Also, the concentration at half-maximal activity (AC50) in the assay with INS1 was 5.58 µM (active).
